The source of these data is publication PMC4258814, “Differences between murine arylamine N-acetyltransferase type 1 and human arylamine N-acetyltransferase type 2 defined by substrate specificity and inhibitor binding” (BMC Pharmacology & Toxicology, 2014).

Positions count from the first letter of the chain named.

For one data set, the system named is (HUMAN)NAT1*4. Also on record: method as in PMID 15627487, PMID 18280460. To be noted: substrate 500 μM, relative to substrate with highest specific activity (100%), mean of 3 ± SD, ref [8], [22]; cited from earlier work.
Another data set has as its target T1, (MOUSE)NAT2_R127G (Mus musculus, UniProt P50295, R127G).
T1 construct: made in house
T1 sequence (P50295 1-290 R127G): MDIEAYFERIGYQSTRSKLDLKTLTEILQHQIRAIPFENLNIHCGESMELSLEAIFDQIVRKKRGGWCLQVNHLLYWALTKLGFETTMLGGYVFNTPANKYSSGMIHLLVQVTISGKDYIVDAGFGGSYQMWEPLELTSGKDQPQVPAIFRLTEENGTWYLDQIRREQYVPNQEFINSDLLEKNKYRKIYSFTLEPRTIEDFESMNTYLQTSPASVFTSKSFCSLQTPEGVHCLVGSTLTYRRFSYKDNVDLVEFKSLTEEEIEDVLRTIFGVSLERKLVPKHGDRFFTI
Put plainly: Substrate specific N-acetylation profile. To be noted: (MOUSE)NAT2 R127G; substrate 500 μM; relative to substrate with highest specific activity (100%); mean of 3 ± SD. The format is biochemical.

A further data set has as its target T2, (MOUSE)NAT2*1 (Mus musculus, UniProt P50295).
T2 construct: made in house
T2 sequence (P50295 1-290): T1 sequence (P50295 1-290 R127G) with G127R
As to the kind of experiment: Substrate specific N-acetylation profile. The format is biochemical. To be noted: substrate 500 μM, relative to substrate with highest specific activity (100%), mean of 3 ± SD.

The next data set deals with T3, (MOUSE)NAT1*1 (Mus musculus, UniProt P50294).
T3 construct: The open reading frame of (MOUSE)Nat1*1 [32] was subcloned; hexa-His (N, cleaved yes); made in house; host or cells: Escherichia coli BL21(DE3)CodonPlus-RIL
T3 sequence (P50294 1-290): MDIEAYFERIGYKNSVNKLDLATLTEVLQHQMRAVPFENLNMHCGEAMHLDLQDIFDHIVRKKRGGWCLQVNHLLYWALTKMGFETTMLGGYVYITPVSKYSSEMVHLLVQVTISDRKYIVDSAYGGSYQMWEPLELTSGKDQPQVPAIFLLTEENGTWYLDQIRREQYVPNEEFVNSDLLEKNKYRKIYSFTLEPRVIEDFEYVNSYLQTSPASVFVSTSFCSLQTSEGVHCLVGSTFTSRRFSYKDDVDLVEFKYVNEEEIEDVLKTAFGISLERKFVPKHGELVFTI
Put plainly: Substrate specific N-acetylation profile. To be noted: for % specific activity values: substrate 500 μM, relative to substrate with highest specific activity (100%), mean of 3 ± SD. The format is biochemical.

Another data set deals with T4, (MOUSE)NAT2_F125S (Mus musculus, UniProt P50295, F125S).
T4 construct: His tag (only implied by Ni-NTA purification) (cleaved yes); made in house; host or cells: E. coli Rosetta(DE3)pLysS
T4 sequence (P50295 1-290 F125S): T1 sequence (P50295 1-290 R127G) with F125S, G127R
As to the kind of experiment: Substrate specific N-acetylation profile. To be noted: for % specific activity values: (MOUSE)NAT2 F125S, substrate 500 μM, relative to substrate with highest specific activity (100%), mean of 3 ± SD. The format is biochemical.

The subject of the next data set is (MESAU)NAT2*1. Also on record: method as in PMID 15627487, PMID 18280460. The settings on record: substrate 500 μM, relative to substrate with highest specific activity (100%), mean of 3 ± SD, ref [8], [22]; cited from earlier work.
The conditions of data set [1]: ref [56]–[61]; cited from earlier work.
In another data set the target is T5, (MOUSE)NAT2_R127L (Mus musculus, UniProt P50295, R127L).
T5 construct: made in house
T5 sequence (P50295 1-290 R127L): T1 sequence (P50295 1-290 R127G) with G127L
Put plainly: Substrate specific N-acetylation profile. The format is biochemical. To be noted: (MOUSE)NAT2 R127L; substrate 500 μM; relative to substrate with highest specific activity (100%); mean of 3 ± SD.

The target of the next data set is T6, (HUMAN)NAT2*4 (Homo sapiens, UniProt P11245).
T6 construct: made in house
T6 sequence (P11245 1-290): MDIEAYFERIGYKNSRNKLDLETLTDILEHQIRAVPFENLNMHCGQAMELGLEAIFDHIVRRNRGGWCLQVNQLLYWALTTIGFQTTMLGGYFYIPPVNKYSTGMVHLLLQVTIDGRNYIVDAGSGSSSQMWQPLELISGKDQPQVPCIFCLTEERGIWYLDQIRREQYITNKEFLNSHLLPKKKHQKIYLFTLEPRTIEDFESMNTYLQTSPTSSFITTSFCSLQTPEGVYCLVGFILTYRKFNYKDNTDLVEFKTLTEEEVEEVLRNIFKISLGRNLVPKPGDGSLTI
Further details: method as in PMID 15627487, PMID 18280460. The settings on record: substrate 500 μM, relative to substrate with highest specific activity (100%), mean of 3 ± SD, ref [8], [22]; cited from earlier work.

For the compound `Nc1ccc(Br)cc1` [4BA, 4-bromoaniline], the “% specific activity values” was 50 ± 1% in the data set with (HUMAN)NAT1*4; 70 ± 1% at (MOUSE)NAT2_R127G; 52 ± 2% on (MOUSE)NAT2*1; 28 ± 6% on (MOUSE)NAT1*1; 47 ± 2% on (MOUSE)NAT2_F125S; 72 ± 1% in the data set with (MESAU)NAT2*1. In addition, the “% specific activity values” at (MOUSE)NAT2_R127L is recorded as 81 ± 11%; at (HUMAN)NAT2*4, 72 ± 1%. Further, in data set [1], the “pKa(H) (NH3^+)” value is reported as 3.4 (NH3^+).

In the case of `Nc1ccc(Cl)cc1` [4CA, 4-chloroaniline], the “% specific activity values” in the data set with (HUMAN)NAT1*4 is on record as 36 ± 2%; on (MOUSE)NAT2_R127G, 54 ± 3%; at (MOUSE)NAT2*1, 46 ± 4%; on (MOUSE)NAT1*1 it was 18 ± 3%; on (MOUSE)NAT2_F125S, 56 ± 2%; with (MESAU)NAT2*1, 61 ± 2%. Also, the “% specific activity values” at (MOUSE)NAT2_R127L is given as 70 ± 1%; on (HUMAN)NAT2*4 it was 71 ± 3%. Moreover, in [1], the “pKa(H) (NH3^+)” value was 3.8 (NH3^+).

As to `Nc1ccc(I)cc1` [4IA, 4-iodoaniline], the “% specific activity values” in the data set with (HUMAN)NAT1*4 is listed as 63 ± 1%; on (MOUSE)NAT2_R127G, 97 ± 1%; at (MOUSE)NAT2*1, 72 ± 3%; at (MOUSE)NAT1*1, 28 ± 3%; at (MOUSE)NAT2_F125S, 69 ± 2%; with (MESAU)NAT2*1, 81 ± 1%. The entries for the “% specific activity values” at (MOUSE)NAT2_R127L and on (HUMAN)NAT2*4 were 74 ± 8% and 65 ± 2%, respectively. Moreover, the “pKa(H) (NH3^+)” value in data set [1] is given as 3.8 (NH3^+).

Regarding `COc1ccc(N)cc1` [ANS, 4-methoxyaniline], the “% specific activity values” with (HUMAN)NAT1*4 is recorded as 56 ± 2%; at (MOUSE)NAT2_R127G, 97 ± 4%; at (MOUSE)NAT2*1 it was 88 ± 6%; at (MOUSE)NAT1*1 it was 48 ± 1%; at (MOUSE)NAT2_F125S, 100 ± 3%; in the data set on (MESAU)NAT2*1 it was 89 ± 1%. Besides, the “% specific activity values” is recorded as 77 ± 10% at (MOUSE)NAT2_R127L and 9 ± 2% at (HUMAN)NAT2*4. On (MOUSE)NAT2_F125S ((MOUSE)NAT2_F125S, best substrate, 500 μM), this compound came in with a Maximal specific activity of 25 µM/s/mg. In addition, in [1], the “pKa(H) (NH3^+)” value is 5.2 (NH3^+).

`CCCCCCOc1ccc(N)cc1` [HOA, 4-hexyloxyaniline]: the “% specific activity values” is 12 ± 4% with (HUMAN)NAT1*4; 59 ± 3% on (MOUSE)NAT2_R127G; 23 ± 2% at (MOUSE)NAT2*1; 3 ± 4% at (MOUSE)NAT1*1; 47 ± 1% at (MOUSE)NAT2_F125S; 35 ± 1% in the data set on (MESAU)NAT2*1. The “% specific activity values” at (MOUSE)NAT2_R127L is 80 ± 8%; at (HUMAN)NAT2*4 it was 51 ± 2%. Moreover, in data set [1], the “pKa(H) (NH3^+)” value is given as 5.1 (NH3^+).

Consider `NNC(=O)c1ccncc1` [INH, isoniazid], for which the “% specific activity values” in the data set with (HUMAN)NAT1*4 is given as 0 ± 2%; on (MOUSE)NAT2_R127G it was 63 ± 10%; at (MOUSE)NAT2*1, 2 ± 2%; at (MOUSE)NAT1*1 it was 100 ± 6%; on (MOUSE)NAT2_F125S it was 38 ± 2%; in the data set on (MESAU)NAT2*1, 1 ± 1%. Also, the “% specific activity values” on (MOUSE)NAT2_R127L is given as 76 ± 14%; on (HUMAN)NAT2*4, 62 ± 2%. Further, the Maximal specific activity on (MOUSE)NAT1*1 (best substrate, 500 μM) came out at 104 µM/s/mg. For the same compound, the “pKa(H) (NH2^+-NH3^+)” value in [1] is 2.0. Besides, the “pKa(H) (NH-NH3^+)” value in [1] is 3.9. Besides, in data set [1], the “pKa(H) (pyridine)” value was 10.8.

Consider `Nc1ccc(Oc2ccccc2)cc1` [POA, 4-phenoxyaniline], for which the “% specific activity values” in the data set on (HUMAN)NAT1*4 was 17 ± 7%; at (MOUSE)NAT2_R127G, 67 ± 1%; at (MOUSE)NAT2*1, 20 ± 2%; on (MOUSE)NAT1*1 it was 6 ± 1%; on (MOUSE)NAT2_F125S, 62 ± 2%; in the data set with (MESAU)NAT2*1, 22 ± 1%. Besides, the “% specific activity values” at (MOUSE)NAT2_R127L is listed as 61 ± 2%; on (HUMAN)NAT2*4, 62 ± 11%. Further, in [1], the “pKa(H) (NH3^+)” value was 4.36 (NH3^+).

For the compound `Cc1cc(C)nc(NS(=O)(=O)c2ccc(N)cc2)n1` [SMZ, sulfamethazine], the “% specific activity values” with (HUMAN)NAT1*4 is given as 1 ± 1%; at (MOUSE)NAT2_R127G it was 19 ± 2%; at (MOUSE)NAT2*1 it was 4 ± 1%; at (MOUSE)NAT1*1, 88 ± 6%; on (MOUSE)NAT2_F125S, 1 ± 1%; in the data set on (MESAU)NAT2*1, 1 ± 1%. In addition, the results for the “% specific activity values” at (MOUSE)NAT2_R127L and at (HUMAN)NAT2*4 were 3 ± 1% and 46 ± 1%, respectively. Moreover, the “pKa(H) (NH3^+)” value in data set [1] was 2.4. Further, in data set [1], the “pKa(H) (sulfonamide)” value was 7.4.
